Test systems include A549; SN12C; K562; EKVX; RPMI-8226; A498; OVCAR-4; SF-268; COLO 205; SF-295; PC-3; NCI/ADR-RES; HCC 2998; NCI-H23; SW-620; SNB-19; MDA-N; HOP-92; NCI-H226; UO-31.
What all share (assay): growth of human tumour cells (NCI), 48 h

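Grown in 96-well plates, cells were treated for 48 hours with each compound at five concentrations. Insufficient inhibition: endpoint recorded as highest concentration tested. GI50 = concentration required for 50% inhibition of growth.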 Active and inactive are the calls of the source. Rule as the data show it: active = GI50 up to about 1.1 µM and inactive = higher.

The record followed here is ChEMBL document CHEMBL1201862, “PubChem BioAssay data set” (2004).

Regarding `CCCCCCCCCCOCCOCCOCCOCCCCC(O)CCCCCCCC1=C[C@H](C)OC1=O` (stereo not given in full), the GI50 in the assay on A549 was 9.31 µM (inactive); in the assay with SN12C, 13.3 µM (inactive); with K562 it was 4.02 µM (inactive); in the assay with EKVX, 10.7 µM (inactive); in the assay with RPMI-8226, 0.933 µM (active); in the assay with A498, 13.6 µM (inactive). Besides, the GI50 with OVCAR-4 was 12.6 µM (inactive); with SF-268 it was 10.9 µM (inactive); with COLO 205, 15.2 µM (inactive); with SF-295, 9.89 µM (inactive); with PC-3, 9.98 µM (inactive); in the assay with NCI/ADR-RES, 7.41 µM (inactive). The GI50 in the assay on HCC 2998 was 13.2 µM (inactive); in the assay on NCI-H23 it was 0.774 µM (active); in the assay with SW-620, 12.1 µM (inactive); in the assay with SNB-19 it was 13.8 µM (inactive); with MDA-N, 11.6 µM (inactive); with HOP-92, 14.2 µM (inactive). Moreover, the GI50 is 10.9 µM (inactive) in the assay on NCI-H226 and 7.78 µM (inactive) in the assay on UO-31.
On to `CC(CN1CC(=O)NC(=O)C1)N1CC(=O)NC(=O)C1` (stereo not given) [RAZOXANE], for which the GI50 was 32.9 µM (inactive) with A549; 112 µM (inactive) in the assay with SN12C; 188 µM (inactive) in the assay on K562; 209 µM (inactive) in the assay with EKVX; 254 µM (inactive) in the assay on RPMI-8226; 157 µM (inactive) in the assay with A498. Also, the GI50 in the assay with OVCAR-4 is 283 µM (inactive); in the assay on SF-268, 299 µM (inactive); in the assay with COLO 205, 22.5 µM (inactive); in the assay on SF-295, 127 µM (inactive); in the assay on PC-3, 66.1 µM (inactive); in the assay on NCI/ADR-RES, 243 µM (inactive). Also, the GI50 in the assay on HCC 2998 was 339 µM (inactive); in the assay on NCI-H23, 213 µM (inactive); with SW-620 it was 54.7 µM (inactive); in the assay on SNB-19, 313 µM (inactive); in the assay on MDA-N it was 182 µM (inactive); with HOP-92 it was 211 µM (inactive). In addition, the GI50 with NCI-H226 is 68.1 µM (inactive); with UO-31 it was 349 µM (inactive).
On to `CC(=O)c1c2c(cc3c1CC1(C3)Cc3ccc4c(c3C1=O)CCC4)CCC2` (stereo not given), for which the GI50 with A549 is 21.5 µM (inactive); in the assay with SN12C it was 48.2 µM (inactive); with K562, 6.58 µM (inactive); in the assay on EKVX, 7.13 µM (inactive); with RPMI-8226, 13.5 µM (inactive); with A498 it was > 100 µM (inactive). The GI50 is 23.9 µM (inactive) with OVCAR-4; > 100 µM (inactive) with SF-268; 11 µM (inactive) with COLO 205; 93.3 µM (inactive) in the assay with SF-295; 16 µM (inactive) in the assay on PC-3; 2.07 µM (inactive) with NCI/ADR-RES. The GI50 is 29.2 µM (inactive) in the assay with HCC 2998; 34.9 µM (inactive) with NCI-H23; 32.7 µM (inactive) with SW-620; > 100 µM (inactive) with SNB-19; 13.8 µM (inactive) in the assay on MDA-N; 8.85 µM (inactive) with HOP-92. Moreover, the GI50 was > 100 µM (inactive) in the assay on NCI-H226 and 55.5 µM (inactive) in the assay on UO-31.
